Structures can show the parent of a compound that is named as a salt. Where two headings read alike, the source gives them in different places. Blank lines part the entries; values can stand above or below the molecule they belong to.
Experiments:
Format in all cases: physicochemical
[1] = Particle size distribution (d50, sharpness index); parameters: key to sharpness index of the crystal thus obtained / sharpness index of the fine powders: calculated by formula from d10, d50, d90; 1.0 = most uniform particle size
Excerpt: d10 in the present description is a value obtained from a particle size distribution analyzer, and represents a particle size of a particle corresponding to 10% of accumulation from the smaller particle side in the particle size distribution based on the volume.
d50 in the present description is a value obtained from a particle size distribution analyzer, and represents a particle size of a particle corresponding to 50% of accumulation from the smaller particle side in the particle size distribution based on the volume.
“Sharpness index” in the present description is an index representing the uniformity of a particle size of a particle in a powder, and a sharpness index of 1.0 represents a powder having the most uniform particle size. The closer the sharpness index is to 1.0, the more the particle size of the powder is uniform. Specifically, the sharpness index represents a value calculated using the following formula from the values of d10, d50, and d90 measured by a particle size distribution analyzer:
Images for measuring the number of particles were obtained by a scanner GT-X830 manufactured by SEIKO EPSON CORPORATION. The powder X-ray diffraction (XRD) was measured using a desktop X-ray diffraction device MiniFlex300 manufactured by Rigaku Corporation. […] The particle strength was measured using a particle hardness measuring device NEW GRANO manufactured by OKADA SEIKO CO., LTD. […] The purity of a compound was measured by a high performance liquid chromatograph (LC-20A) manufactured by Shimadzu Corporation.

[2] = Sphericity from SEM images (ImageJ); parameters: key: 1 = true sphere; closer to 1 = more spherical; mean of ≥5 particles
Excerpt: In the present description, “spherulite” means a crystal aggregate (polycrystal) which has a radial or concentric thin layered structure and has a spherical outer shape. Whether the crystal obtained by the method of the present invention is a spherulite or not can be determined, for example, by observing the outer shape of the crystal using SEM. For example, it can be discriminated by cutting the crystal aggregate and observing the internal structure thereof using SEM. The sphericity of the spherulite obtained by the method of the present invention is usually 0.60 or more, preferably 0.70 or more, more preferably 0.80 or more, particularly preferably 0.90 or more, and most preferably 0.95 or more. The sphericity can be calculated by the following method.
When an image of particles taken by SEM is analyzed using image processing software ImageJ, a coordinate group representing the position of pixels forming the outline of a particle is obtained. The length of the coordinate group is defined as N, and one pixel coordinate of each outline is defined as p[i] (1≤i≤N). The angle between a straight line l(k) connecting two points p[k] and p[k+N/D] and a straight line m(k) connecting two points p[k+N/D] and p[k+2N/D] is defined as θ(k) (−180°<θ<180°) (1≤k≤N, 1≤D≤N). D corresponds to the number of partitions of the outline. When N/D is not a natural number, the value is defined as the quotient obtained by dividing N by D. By calculating this angle with k=1 to N, N pieces of θ value can be obtained.
When the particle is a true sphere, θ(k) is 360/D, and the closer the particle is to a true sphere, the closer θ(k) is to this value. The error between θ(k) and the true value 360/D is evaluated by the root-mean-square error (RMSE) of the following formula:
Using the RMSE value of when D is 10 (θ(k)=36°), the sphericity is defined by the following formula: […]
The sphericity is 1 in a true sphere, and the closer the particle is to a true sphere, the closer the sphericity is to 1. Meanwhile, the sphericity of an ellipse whose long axis is infinitely long is zero. The sphericity is measured for five or more particles to calculate the mean. This mean is defined as the sphericity of each sample (see FIGS. 42 and 43).

[3] = Measurement of critical degree of supersaturation of spherulite
Excerpt: “Supersaturated solution” in the present description means a solution in a state of containing a solute exceeding the solubility. As the degree of supersaturation, “degree of supersaturation” can be used. Regarding the degree of supersaturation, when the concentration (mass concentration (g/g)) of a compound dissolved in a supersaturated solution is defined as C and the solubility of the compound is defined as Cs, the degree of supersaturation S can be represented by the following formula: […]
“Critical degree of supersaturation” in the present description means the lowest degree of supersaturation required to obtain a specifically-shaped crystal. […] The value of a critical degree of supersaturation varies depending on the shape of a crystal. For example, all of values of a critical degree of supersaturation required to obtain a plate crystal, a critical degree of supersaturation required to obtain a needle crystal, and a critical degree of supersaturation required to obtain a spherulite are different. The critical degree of supersaturation required to obtain a spherulite is higher than the critical degree of supersaturation required to obtain a plate crystal or a needle crystal.
The actual measured value of the critical degree of supersaturation (S*) can be measured as follows:
(1) 100 particles are observed by SEM. (2) 5 to 10 particles whose shape is close to a desired specific shape are selected, and the shape is evaluated. In particular, when the desired specific shape is a sphere, the sphericity is evaluated. (3) Based on the evaluation index of the shape, whether the selected particles have the desired specific shape or not is determined. In particular, when the desired specific shape is a sphere, the case where the sphericity is 0.60 or more is determined as a spherulite. (4) The above-mentioned operation is performed for each sample having a different degree of supersaturation during crystallization, and the minimum value of a degree of supersaturation having the specifically-shaped particles is determined as the critical degree of supersaturation. The difference between the maximum value of a degree of supersaturation not having the specifically-shaped particles and the critical degree of supersaturation should be 20% or less.
The critical degree of supersaturation of a spherulite of ketotifen fumarate was determined as follows. To 2.0 g of ketotifen fumarate, 10 mL (5 v/w) of methanol was added, followed by reflux to completely dissolve. This solution was added dropwise to 50 mL of isopropanol at 20° C. to prepare a supersaturated solution of ketotifen fumarate. The degree of supersaturation of the supersaturated solution at the end of dropwise addition was 9.0. The supersaturated solution was crystallized. The crystal was collected by filtration, followed by drying under reduced pressure at 40° C., thus obtaining a crystal of ketotifen fumarate.
Similarly, when a substrate and a solvent different from those mentioned above are used, a plurality of samples having a different degree of supersaturation are prepared and crystallized, and then the critical degree of supersaturation of the spherulite was measured.

[4] = dry particle size distribution, volume based
[5] = SEM image analysis, mean of particles
[6] = calculated from d10, d50, d90, trihydrate
[7] = dry particle size distribution, volume based, trihydrate
[8] = SEM image analysis, mean of particles, trihydrate

sharpness index of the crystal thus obtained ([1]; calculated from d10, d50, d90): 1.66 | d50 of the crystal thus obtained [1, 4]: 148 μm | sphericity of the spherulite [2, 5]: 0.98±0.01
SMILES: Nc1nc(CC(=O)Nc2ccc(CCNC[C@H](O)c3ccccc3)cc2)cs1 [Example 27, mirabegron]

sharpness index of the crystal thus obtained ([1]; calculated from d10, d50, d90): 2.15 | d50 of the crystal thus obtained [1, 4]: 105 μm | sphericity of the spherulite [2, 5]: 0.98±0.01
SMILES: O=C(O)CCCN1CCC(O[C@@H](c2ccc(Cl)cc2)c2ccccn2)CC1.O=S(=O)(O)c1ccccc1 [Example 30, bepotastine besilate]

sphericity of the spherulite [2, 5]: 0.94±0.04
SMILES: Cc1c(OCC(F)(F)F)ccnc1C[S+]([O-])c1nc2ccccc2[nH]1 (centres unmarked) [Example 11, lansoprazole]

sphericity of the spherulite [2, 5]: 0.78±0.02
SMILES: CN1CCC(=C2c3ccccc3CC(=O)c3sccc32)CC1 [Example 1, ketotifen fumarate]

Critical degree of supersaturation S Experimental value ([3]; entry 3, solvent 1 H2O, solvent 2 2-BuOH, solvent 2/solvent 1 ratio 222, crystallization 20 °C): 9.7
SMILES: COC(=O)[C@H](c1ccccc1Cl)N1CCc2sccc2C1 [Clopidogrel sulfate]

actual measured value of the critical degree of supersaturation [3]: 10.9 | Critical degree of supersaturation S Experimental value ([3]; entry 2, solvent 1 MeOH, solvent 2 H2O, solvent 2/solvent 1 ratio 3, crystallization 0 °C): 6.9 | Critical degree of supersaturation S Experimental value ([3]; entry 20, solvent 1 MeOH, solvent 2 H2O, solvent 2/solvent 1 ratio 3, crystallization 15 °C): 12.6
SMILES: Cc1c(OCC(F)(F)F)ccnc1C[S+]([O-])c1nc2ccccc2[nH]1 (centres unmarked) [Lansoprazole]

Continued, molecule first:

SMILES: CC[C@H]1OC(=O)[C@H](C)[C@@H](O[C@H]2C[C@@](C)(OC)[C@@H](O)[C@H](C)O2)[C@H](C)[C@@H](O[C@@H]2O[C@H](C)C[C@H](N(C)C)[C@H]2O)[C@](C)(O)C[C@@H](C)CN(C)[C@H](C)[C@@H](O)[C@]1(C)O [Example 12, azithromycin monohydrate]
sharpness index of the crystal thus obtained ([1]; calculated from d10, d50, d90): 1.5 | d50 of the crystal thus obtained [1, 4]: 75 μm | sphericity of the spherulite [2, 5]: 0.89±0.02

SMILES: COc1ccc2[n-]c([S@@+]([O-])Cc3ncc(C)c(OC)c3C)nc2c1.COc1ccc2[n-]c([S@@+]([O-])Cc3ncc(C)c(OC)c3C)nc2c1.O.O.O.[Mg+2] [Example 7, esomeprazole magnesium trihydrate]
sharpness index of the crystal thus obtained [1, 6]: 1.40 | d50 of the crystal thus obtained [1, 7]: 189 μm | sphericity of the spherulite [2, 8]: 0.97±0.01

SMILES: NC(CCC(=O)O)C(=O)O (racemic) [Example 14, DL-glutamic acid]
sphericity of the spherulite [2, 5]: 0.95±0.03

SMILES: CC[C@H]1OC(=O)[C@H](C)[C@@H](O[C@H]2C[C@@](C)(OC)[C@@H](O)[C@H](C)O2)[C@H](C)[C@@H](O[C@@H]2O[C@H](C)C[C@H](N(C)C)[C@H]2O)[C@](C)(OC)C[C@@H](C)C(=O)[C@H](C)[C@@H](O)[C@]1(C)O [Example 13, clarithromycin]
sharpness index of the crystal thus obtained ([1]; calculated from d10, d50, d90): 4.6 | d50 of the crystal thus obtained [1, 4]: 16 μm | sphericity of the spherulite [2, 5]: 0.87±0.08

SMILES: COc1ccc2[n-]c([S@@+]([O-])Cc3ncc(C)c(OC)c3C)nc2c1.COc1ccc2[n-]c([S@@+]([O-])Cc3ncc(C)c(OC)c3C)nc2c1.O.O.O.[Mg+2] [Example 10(1), esomeprazole magnesium trihydrate]
sharpness index of the crystal thus obtained [1, 6]: 1.51 | d50 of the crystal thus obtained [1, 7]: 39.9 μm | d50 ([1]; samples of filtration test (Table 7), trihydrate): 39.9 μm | sphericity of the spherulite [2, 8]: 0.97±0.01

SMILES: N#C[C@@H]1CCCN1C(=O)CNC12CC3CC(CC(O)(C3)C1)C2 [Example 20, vildagliptin]
sphericity of the spherulite [2, 5]: 0.99±0.01

SMILES: Cn1c(=O)c2[nH]cnc2n(C)c1=O.O.O.O.O.[Mg] [Example 26, theophylline magnesium salt tetrahydrate]
sharpness index of the crystal thus obtained ([1]; calculated from d10, d50, d90): 3.06 | d50 of the crystal thus obtained [1, 4]: 43.0 μm | sphericity of the spherulite [2, 5]: 0.95±0.02

SMILES: COc1ccc2[n-]c([S@@+]([O-])Cc3ncc(C)c(OC)c3C)nc2c1.COc1ccc2[n-]c([S@@+]([O-])Cc3ncc(C)c(OC)c3C)nc2c1.O.O.O.[Mg+2] [Example 2, esomeprazole magnesium trihydrate]
sharpness index of the fine powders ([1]; after centrifugal classification and sieving): 1.3 | d50 of the fine powders ([1]; after centrifugal classification and sieving (on 390 M, 38 μm)): 54.6 μm | sharpness index of the crystal thus obtained [1, 6]: 2.5 | d50 of the crystal thus obtained [1, 7]: 56.1 μm | sphericity of the spherulite [2, 8]: 0.95±0.03

SMILES: CNCC[C@H](Oc1cccc2ccccc12)c1cccs1 [Example 15, duloxetine hydrochloride]
d50 of the crystal thus obtained [1]: 138 μm | sharpness index of the crystal thus obtained [1]: 4.7 | sphericity of the spherulite [2]: 0.92±0.07

SMILES: CN(C)CCC[C@@]1(c2ccc(F)cc2)OCc2cc(C#N)ccc21 [Example 19, escitalopram oxalate]
sharpness index of the crystal thus obtained ([1]; calculated from d10, d50, d90): 4.87 | d50 of the crystal thus obtained [1, 4]: 50.7 μm | sphericity of the spherulite [2, 5]: 0.98±0.01

SMILES: CC[C@H]1OC(=O)[C@H](C)[C@@H](O[C@H]2C[C@@](C)(OC)[C@@H](O)[C@H](C)O2)[C@H](C)[C@@H](O[C@@H]2O[C@H](C)C[C@H](N(C)C)[C@H]2O)[C@](C)(OC)C[C@@H](C)C(=O)[C@H](C)[C@@H](O)[C@]1(C)O [Clarithromycin]
actual measured value of the critical degree of supersaturation [3]: 17 | Critical degree of supersaturation S Experimental value ([3]; entry 8, solvent 1 THF, solvent 2 H2O, solvent 2/solvent 1 ratio 25, crystallization 0 °C): 11 | Critical degree of supersaturation S Experimental value ([3]; entry 9, solvent 1 THF, solvent 2 H2O, solvent 2/solvent 1 ratio 70, crystallization 0 °C): 26 | Critical degree of supersaturation S Experimental value ([3]; entry 10, solvent 1 THF, solvent 2 H2O, solvent 2/solvent 1 ratio 75, crystallization 10 °C): 17

SMILES: N[C@@H](CCC(=O)N[C@@H](CS)C(=O)NCC(=O)O)C(=O)O [Glutathione]
actual measured value of the critical degree of supersaturation [3]: 18.7 | Critical degree of supersaturation S Experimental value ([3]; entry 47, solvent 1 H2O, solvent 2 EtOH, solvent 2/solvent 1 ratio 5, crystallization 20 °C): 18.7

Source: patent US20210391038A1, “SPECIFICALLY-SHAPED CRYSTAL OF COMPOUND AND METHOD FOR PRODUCING SAME” (TOWA PHARMACEUTICAL CO., LTD., priority 2018, published 2021)
